Where two headings read alike, the source gives them in different places. Ends that are not written are not given here.
How the values were obtained:
[1] = Circular dichroism (CD); assay type: physicochemical; conditions: bandwidth of 1 nm; buffer spectrum subtracted as blank
[2] = system: RBDs; assay type: binding, SARS-CoV-2; conditions: peptide-GO complexes; RBDs 0 to 12 μg mL-1; PBS (0.01 M, pH 7.40); excitation 520 nm
[3] = assay type: binding; design: unit not given here; conditions: GO (1–15 µg mL−1); peptide probe 2 × 10−6 M; PBS (0.01 M, pH 7.4), 2 min, excitation 520 nm; double reciprocal linear fitting
[4] = system: RBDs from the S-proteins of the five VOCs; assay: Differential sensing of RBDs with S1-S20 (fluorescence, PCA, loading plots); assay type: binding, SARS-CoV-2; conditions: PCA and loading plots
[5] = assay type: binding; design: unit not given here; conditions: AuNPs (1–20 µg mL−1); peptide probe 2 × 10−6 M; PBS (0.01 M, pH 7.4), 2 min, excitation 520 nm; double reciprocal linear fitting
[6] = assay type: binding; design: unit not given here; conditions: 2D MnO2 (1–12 µg mL−1); peptide probe 2 × 10−6 M; PBS (0.01 M, pH 7.4), 2 min, excitation 520 nm; double reciprocal linear fitting
[7] = assay type: binding; design: unit not given here; conditions: CNTs (1–8 µg mL−1); peptide probe 2 × 10−6 M; PBS (0.01 M, pH 7.4), 2 min, excitation 520 nm; double reciprocal linear fitting

Row | Substance | secondary structure (CD spectra) [1] | sensitivity of the peptide probes for the RBDs (order, from detection limits) [2] | binding constant (Ka) [3] | contribution of peptide probes for VOC classification (order, loading plots) [4] | binding constant (Ka) [5] | binding constant (Ka) [6] | binding constant (Ka) [7]
1 | GI7: heptamer (residues 352–358) from the β3 and β4-sheet of hACE2 (GKGDFRI; UniProt Q9BYF1 352-358, looked up, fragment) | no typical signature of secondary structures | – | – | – | – | – | –
2 | LL7: heptamer (residues 79–85) from α2-helix of hACE2 (LAQMYPL; UniProt Q9BYF1 79-85, looked up, fragment) | no typical signature of secondary structures | – | – | – | – | – | –
3 | QQ19: continuous 19-mer (amino-acid residues 24–42) truncated from the α1-helix of hACE2 (QAKTFLDKFNHEAEDLFYQ; UniProt Q9BYF1 24-42, looked up, fragment) | two minima at 202 and 222 nm, characteristic of α-helices | – | – | – | – | – | –
4 | TI7: fluorescently tagged (5-TAMRA) peptide probe, presumably of GI7 (GKGDFRI; also: 5-TAMRA label, site not given here; UniProt Q9BYF1 352-358, looked up, fragment) | – | TI26 > TQ26 > TQ19 > TL7 > TI7 | 0.0273 | TI26 > TQ26 > TQ19 > TL7 > TI7 | 0.0153 | 0.1024 | 0.1462
5 | TL7: fluorescently tagged (5-TAMRA) peptide probe, presumably of LL7 (LAQMYPL; also: 5-TAMRA label, site not given here; UniProt Q9BYF1 79-85, looked up, fragment) | – | TI26 > TQ26 > TQ19 > TL7 > TI7 | 0.0319 | TI26 > TQ26 > TQ19 > TL7 > TI7 | 0.0249 | 0.0096 | 0.0776
6 | TQ19: fluorescently tagged (5-TAMRA) peptide probe, presumably of QQ19 (QAKTFLDKFNHEAEDLFYQ; also: 5-TAMRA label, site not given here; UniProt Q9BYF1 24-42, looked up, fragment) | – | TI26 > TQ26 > TQ19 > TL7 > TI7 | – | TI26 > TQ26 > TQ19 > TL7 > TI7 | – | – | –
